Assays:
[1] = tested on: NCI-H3118 (Head and Neck Carcinoma); assay: Bliss excess, mean over the matrix (fraction); higher = more synergy
Summary of the method: (§1)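 Cell lines grown in DMEM/F12 or RPMI with 10% FBS were plated in 1536-well plates and held 24 hours at 37°C, 5% CO2 before 72 hours of exposure to two-drug dose matrices, with DMSO typically at 0.2%. CellTiter-Glo 2.0 luminescence gave viability, which was converted to inhibition. Vehicle wells were set to 0 and blank wells to 1. Combination Emax is the second-highest inhibition in the matrix, and Bliss excess is the observed combination effect minus the expected EA + EB − EA·EB, where EA and EB are the single-agent effects.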

[2] = tested on: SNU-423 (Hepatocellular Carcinoma); assay: as above
Summary of the method: as §1

IST-MEL1 (Melanoma) = assay: as above
Summary of the method: as §1

[3] = tested on: T84 (Colorectal Carcinoma); assay: as above
Summary of the method: as §1

[4] = tested on: IA-LM (Non-Small Cell Lung Carcinoma); assay: as above
Summary of the method: as §1

[5] = tested on: RCC-JW (Kidney Carcinoma); assay: as above
Summary of the method: as §1

ES6 (Ewing's Sarcoma) = assay: as above
Summary of the method: as §1

[6] = tested on: SKG-IIIa (Cervical Carcinoma); assay: as above
Summary of the method: as §1

KALS-1 (Glioblastoma) = assay: as above
Summary of the method: as §1

[7] = tested on: LS-1034 (Colorectal Carcinoma); assay: as above
Summary of the method: as §1

GAK (Melanoma) = assay: as above
Summary of the method: as §1

[8] = tested on: CPC-N (Small Cell Lung Carcinoma); assay: as above
Summary of the method: as §1

[9] = tested on: BxPC-3 (Pancreatic Carcinoma); assay: as above
Summary of the method: as §1

[10] = tested on: MS-1 (Small Cell Lung Carcinoma); assay: as above
Summary of the method: as §1

SK-N-SH (Neuroblastoma) = assay: combination Emax (second highest fraction inhibited in the dose matrix, 72 h); higher = more inhibition; extreme values may be limits of the assay
Summary of the method: as §1

[11] = tested on: SCC-4 (Oral Cavity Carcinoma); assay: as above
Summary of the method: as §1

NCI-H226 (Mesothelioma) = assay: as above
Summary of the method: as §1

[12] = tested on: LS-1034 (Colorectal Carcinoma); assay: as above
Summary of the method: as §1

[13] = tested on: CPC-N (Small Cell Lung Carcinoma); assay: as above
Summary of the method: as §1

[14] = tested on: SK-CO-1 (Colorectal Carcinoma); assay: as above
Summary of the method: as §1
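Wherever Bliss excess, mean over the matrix is given: after 72 h of two-drug dosing.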

Row | SMILES | Bliss excess [1] | Bliss excess [2] | Bliss excess (IST-MEL1 (Melanoma)) | Bliss excess [3] | Bliss excess [4] | Bliss excess [5] | Bliss excess (ES6 (Ewing's Sarcoma)) | Bliss excess [6] | Bliss excess (KALS-1 (Glioblastoma)) | Bliss excess [7] | Bliss excess (GAK (Melanoma)) | Bliss excess [8] | Bliss excess [9] | Bliss excess [10] | combination Emax (SK-N-SH (Neuroblastoma)) | combination Emax [11] | combination Emax (NCI-H226 (Mesothelioma)) | combination Emax [12] | combination Emax [13] | combination Emax [14]
1 | C=CCn1c(=O)c2cnc(Nc3ccc(N4CCN(C)CC4)cc3)nc2n1-c1cccc(C(C)(C)O)n1 [AZD1775] + CCc1c2c(nc3ccc(O)cc13)-c1cc3c(c(=O)n1C2)COC(=O)[C@]3(O)CC [SN-38] (first compound max 1 µM, partner max 0.3 µM) | -0.0284 | -0.0644 | -0.0827 | 0.0598 | -0.0699 | -0.0187 | -0.0995 | -0.0319 | 0.0642 | 0.0498 | -0.0432 | 0.0523 | -0.101 | -0.0292 | 0.957 | 0.902 | 0.366 | 0.894 | 0.923 | 0.898
2 | C=CCn1c(=O)c2cnc(Nc3ccc(N4CCN(C)CC4)cc3)nc2n1-c1cccc(C(C)(C)O)n1 [AZD1775] + Nc1ccn([C@@H]2O[C@H](CO)[C@@H](O)C2(F)F)c(=O)n1 [Gemcitabine] (first compound max 1 µM, partner max 0.3 µM) | -0.0638 | -0.0538 | 0.0144 | 0.0564 | -0.0454 | -0.0163 | -0.0385 | 0.0393 | 0.0299 | 0.0159 | -0.0443 | – | -0.029 | -0.0721 | 0.879 | 0.688 | 0.482 | – | 0.897 | 0.903
3 | CN(CCO)CC[C@H](CSc1ccccc1)Nc1ccc(S(=O)(=O)NC(=O)c2ccc(N3CCC([C@@H](O)c4ccccc4-c4ccc(Cl)cc4)CC3)cc2)cc1S(=O)(=O)C(F)(F)F [AZD4320] + CC(=O)O[C@H]1C(=O)[C@@]2(C)[C@H]([C@H](OC(=O)c3ccccc3)[C@]3(O)C[C@H](OC(=O)[C@H](O)[C@@H](NC(=O)c4ccccc4)c4ccccc4)C(C)=C1C3(C)C)[C@]1(OC(C)=O)CO[C@@H]1C[C@@H]2O [Paclitaxel] (first compound max 1 µM, 7x7, partner max 3 µM) | 0.019 | 0.0819 | 0.238 | -0.0222 | 0.08 | 0.0707 | 0.101 | 0.133 | 0.0468 | 0.0038 | 0.0815 | 0.0262 | 0.157 | 0.0825 | 0.989 | 0.971 | 0.917 | 0.82 | 1 | 0.972
4 | CN(CCO)CC[C@H](CSc1ccccc1)Nc1ccc(S(=O)(=O)NC(=O)c2ccc(N3CCC([C@@H](O)c4ccccc4-c4ccc(Cl)cc4)CC3)cc2)cc1S(=O)(=O)C(F)(F)F [AZD4320] + CS(=O)(=O)CCNCc1ccc(-c2ccc3ncnc(Nc4ccc(OCc5cccc(F)c5)c(Cl)c4)c3c2)o1 [Lapatinib] (first compound max 1 µM, 7x7, partner max 10 µM) | 0.0041 | 0.017 | -0.0011 | -0.0061 | -0.0137 | -0.0443 | -0.0017 | -0.0081 | 0.0176 | 0.0441 | 0.0059 | 0.052 | -0.025 | 0.068 | 0.97 | 0.942 | 0.309 | 0.939 | 0.977 | 0.97
5 | CN(CCO)CC[C@H](CSc1ccccc1)Nc1ccc(S(=O)(=O)NC(=O)c2ccc(N3CCC([C@@H](O)c4ccccc4-c4ccc(Cl)cc4)CC3)cc2)cc1S(=O)(=O)C(F)(F)F [AZD4320] + Nc1ccn([C@@H]2O[C@H](CO)[C@@H](O)C2(F)F)c(=O)n1 [Gemcitabine] (first compound max 1 µM, 7x7, partner max 0.3 µM) | -0.0638 | 0.0088 | 0.134 | -0.0434 | 0.0296 | -0.0025 | 0.0253 | 0.0259 | 0.0063 | -0.0357 | 0.0955 | 0.0415 | -0.0248 | -0.0023 | 0.968 | 0.743 | 0.555 | 0.592 | 0.962 | 0.945
6 | Cc1c2c(nn1C)CSCc1cc(n(C)n1)CSc1cc(c3ccccc3c1)OCCCc1c(C(=O)O)n(C)c3c-2c(Cl)ccc13 [AZD5991] + CC(=O)O[C@H]1C(=O)[C@@]2(C)[C@H]([C@H](OC(=O)c3ccccc3)[C@]3(O)C[C@H](OC(=O)[C@H](O)[C@@H](NC(=O)c4ccccc4)c4ccccc4)C(C)=C1C3(C)C)[C@]1(OC(C)=O)CO[C@@H]1C[C@@H]2O [Paclitaxel] (first compound max 1 µM, 7x7, partner max 3 µM) | 0.0079 | -0.0344 | -0.0215 | -0.0379 | -0.0452 | -0.0029 | 0.005 | -0.036 | 0.0314 | -0.0473 | 0.0893 | -0.0539 | 0.0075 | -0.0135 | 0.926 | 0.868 | 0.378 | 0.587 | 0.773 | 0.858
7 | Cc1c2c(nn1C)CSCc1cc(n(C)n1)CSc1cc(c3ccccc3c1)OCCCc1c(C(=O)O)n(C)c3c-2c(Cl)ccc13 [AZD5991] + CS(=O)(=O)CCNCc1ccc(-c2ccc3ncnc(Nc4ccc(OCc5cccc(F)c5)c(Cl)c4)c3c2)o1 [Lapatinib] (first compound max 1 µM, 7x7, partner max 10 µM) | 0.0426 | -0.0272 | -0.005 | 0.0239 | -0.0292 | -0.0401 | 0.0331 | 0.0014 | 0.0053 | -0.0332 | 0.015 | -0.0429 | -0.005 | -0.0273 | 0.442 | 0.81 | 0.145 | 0.39 | 0.327 | 0.471
8 | Cc1c2c(nn1C)CSCc1cc(n(C)n1)CSc1cc(c3ccccc3c1)OCCCc1c(C(=O)O)n(C)c3c-2c(Cl)ccc13 [AZD5991] + Nc1ccn([C@@H]2O[C@H](CO)[C@@H](O)C2(F)F)c(=O)n1 [Gemcitabine] (first compound max 1 µM, 7x7, partner max 0.3 µM) | -0.0107 | -0.0672 | -0.0045 | -0.0187 | -0.0384 | 0.0274 | -0.002 | -0.0271 | -0.0036 | -0.0473 | 0.01 | -0.0387 | 0.0052 | -0.0371 | 0.757 | 0.53 | 0.173 | 0.614 | 0.754 | 0.864
9 | C[C@@H]1COCCN1c1cc(C2([S@](C)(=N)=O)CC2)nc(-c2ccnc3[nH]ccc23)n1 [AZD6738] + C1CC(C1)(C(=O)[O-])C(=O)[O-].N.N.[Pt+2] [Carboplatin] (first compound max 10 µM, 7x7, partner max 10 µM) | -0.0423 | -0.0425 | -0.0271 | -0.0041 | -0.047 | 0.0051 | -0.0116 | -0.0079 | -0.0426 | -0.0575 | -0.0442 | -0.0391 | -0.0539 | -0.093 | 0.818 | 0.552 | 0.236 | 0.677 | 0.8 | 0.808
10 | C[C@@H]1COCCN1c1cc(C2([S@](C)(=N)=O)CC2)nc(-c2ccnc3[nH]ccc23)n1 [AZD6738] + Nc1ccn([C@@H]2O[C@H](CO)[C@@H](O)C2(F)F)c(=O)n1 [Gemcitabine] (first compound max 10 µM, 7x7, partner max 0.3 µM) | 0.0134 | 0.0969 | 0.0314 | 0.0477 | -0.027 | 0.0928 | -0.0072 | 0.0657 | 0.0483 | 0.0853 | -0.0055 | 0.0021 | 0.008 | 0.0014 | 0.932 | 0.849 | 0.495 | 0.902 | 0.949 | 0.897
11 | Cc1cc2ncnn2cc1Nc1ncc2c(n1)n(C1CCOCC1)c(=O)n2C [AZD7648] + COc1cc([C@@H]2c3cc4c(cc3[C@@H](O[C@@H]3O[C@@H]5CO[C@@H](C)O[C@H]5[C@H](O)[C@H]3O)[C@H]3COC(=O)[C@H]23)OCO4)cc(OC)c1O [Etoposide] (first compound max 10 µM, 7x7, partner max 10 µM) | 0.0669 | 0.0551 | 0.0192 | -0.0105 | -0.0116 | 0.132 | -0.0009 | 0.0558 | 0.101 | -0.0205 | 0.0732 | 0.0611 | -0.0254 | 0.0655 | 0.945 | 0.469 | 0.332 | 0.335 | 0.906 | 0.879
12 | N#Cc1cnc(Nc2cc(NC[C@H]3CNCCO3)c(C(F)(F)F)cn2)cn1 [SRA737] + C=CCn1c(=O)c2cnc(Nc3ccc(N4CCN(C)CC4)cc3)nc2n1-c1cccc(C(C)(C)O)n1 [AZD1775] (first compound max 10 µM, partner max 1 µM) | 0.0583 | 0.0786 | 0.046 | 0.0022 | 0.0224 | -0.002 | 0.0022 | -0.031 | 0.0439 | 0.142 | 0.0525 | 0.0589 | 0.0061 | 0.078 | 0.804 | 0.64 | 0.226 | 0.809 | – | 0.631
13 | N#Cc1cnc(Nc2cc(NC[C@H]3CNCCO3)c(C(F)(F)F)cn2)cn1 [SRA737] + CCc1c2c(nc3ccc(O)cc13)-c1cc3c(c(=O)n1C2)COC(=O)[C@]3(O)CC [SN-38] (first compound max 10 µM, 7x7, partner max 0.3 µM) | -0.0085 | 0.0367 | -0.0613 | -0.0351 | -0.0646 | -0.0857 | -0.0423 | 0.0311 | 0.0836 | 0.083 | – | 0.0694 | -0.0428 | -0.0022 | 0.892 | 0.893 | 0.248 | 0.873 | 0.872 | 0.893

From the supplement of paper PMC11061612
